Measurements as given in PubChem BioAssay (NCI).
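GI50 is the concentration that inhibits growth by half. TGI denotes the concentration required for complete inhibition of growth.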

Experiments:
Assay in all cases: growth of human tumour cells (NCI), 384-well format
COLO 205 colon = system: COLO 205 colon
MOLT-4 leukemia = system: MOLT-4 leukemia
786-0 renal = system: 786-0 renal
CAKI-1 renal = system: CAKI-1 renal
SF-295 CNS = system: SF-295 CNS
HOP-62 NSCLC = system: HOP-62 NSCLC
TK-10 renal = system: TK-10 renal
UACC-257 melanoma = system: UACC-257 melanoma
UACC-62 melanoma = system: UACC-62 melanoma
PC-3 prostate = system: PC-3 prostate
MDA-MB-468 breast = system: MDA-MB-468 breast
ACHN renal = system: ACHN renal
DU-145 prostate = system: DU-145 prostate

SMILES: Cn1cc(CNCC2CCN(c3ncc(C(=O)NO)cn3)CC2)c2ccccc21
- GI50 (COLO 205 colon): < 10 nM
- TGI (COLO 205 colon): 18.3 nM
- GI50 (MOLT-4 leukemia): < 10 nM
- TGI (MOLT-4 leukemia): < 10 nM
- GI50 (786-0 renal): 22.8 nM
- TGI (786-0 renal): 120 nM
- GI50 (CAKI-1 renal): < 11.2 nM
- TGI (CAKI-1 renal): 26 nM
- GI50 (SF-295 CNS): 16.1 nM
- TGI (SF-295 CNS): 54.4 nM
- GI50 (HOP-62 NSCLC): < 11.8 nM
- TGI (HOP-62 NSCLC): 62.1 nM
- GI50 (TK-10 renal): 12.2 nM
- TGI (TK-10 renal): 38.3 nM
- GI50 (UACC-257 melanoma): < 10 nM
- TGI (UACC-257 melanoma): 23.6 nM
- GI50 (UACC-62 melanoma): < 10 nM
- TGI (UACC-62 melanoma): 14.9 nM
- GI50 (PC-3 prostate): < 12.3 nM
- TGI (PC-3 prostate): 46.2 nM
- GI50 (MDA-MB-468 breast): < 10 nM
- TGI (MDA-MB-468 breast): < 10 nM
- GI50 (ACHN renal): 14.3 nM
- TGI (ACHN renal): 34.9 nM
- GI50 (DU-145 prostate): < 10 nM
- TGI (DU-145 prostate): 22.9 nM
